Measured values as given in ChEMBL document CHEMBL1123032, “Antiparasitic agents. 6. Synthesis and anthelmintic activities of novel isothiocyanatophenyl-1,2,4-oxadiazoles” (1985).

Tests used:
Assay type in all cases: functional
[1] = Anthelmintic activity against Nematospiroides dubius when the dose was administered orally in mouse.; design: concentration or dose not given beside the values
[2] = tested on: Rodentolepis nana; experiment: Evaluation for antihelminthic activity against Hymenolepis nana when the dose was administered orally in mouse.
[3] = species: Mus musculus; experiment: Compound was evaluated for antihelminthic activity in the diet against Nematospiroides dubius in mice at concentration 0.2%
[4] = species: Mus musculus; experiment: Compound was evaluated for antihelminthic activity in the diet against Nematospiroides dubius in mice at a concentration 0.013%
[5] = species: Mus musculus; experiment: Compound was evaluated for antihelminthic activity in the diet against Nematospiroides dubius in mice at a concentration 0.05%
[6] = species: Mus musculus; experiment: Compound was evaluated for antihelminthic activity in the diet against Nematospiroides dubius in mice at a concentration 0.025%
[7] = species: Mus musculus; experiment: Compound was evaluated for antihelminthic activity in the diet against Nematospiroides dubius in mice at a concentration 0.1%
[8] = tested on: Mus musculus; experiment: Compound was evaluated for antihelminthic activity against Hymenolepis nana when the dose was administered orally in mouse after destrobilization
[9] = tested on: Mus musculus; experiment: Compound was evaluated for antihelminthic activity against Hymenolepis nana when the dose was administered subcutaneously in mouse

Row | Compound | Activity [1] [%] | Activity [2] [%] | other results
1 | [O-][n+]1ccc(-c2ncon2)cc1 | 0 | 0 | 
2 | Nc1ccc(-c2ncon2)cc1 | 0 | 0 | 
3 | S=C=Nc1ccc(-c2noc(C3CCCCC3)n2)cc1 | 0 | 25 | 
4 | Fc1ccc(-c2noc(-c3ccc(N=C=S)cc3)n2)cc1 | 0 | 0 | 
5 | COCCc1nc(-c2ccc(N=C=S)cc2)no1 | 0 | 0 | 
6 | S=C=Nc1cc(-c2nc(-c3ccco3)no2)ccc1Cl | 0 | 100 | 
7 | COC(=O)Nc1cc(-c2nc(-c3ccco3)no2)ccc1Cl | 0 | 0 | 
8 | O=[N+]([O-])CCc1nc(-c2ccccc2)no1 | 0 | 0 | 
9 | Nc1ccc(-c2nc(-c3ccco3)no2)c(Cl)c1 | 0 | 0 | 
10 | CCCCCCCCCCCc1nc(N)no1 |  |  | Activity [3]: 93%; Activity [4]: 8%; Activity [5]: 46%; Activity [6]: 35%; Activity [7]: 70%
11 | Nc1ccc(-c2nc(-c3ccc(Cl)cc3)no2)cc1 | 0 | 0 | 
12 | c1ccc(-c2nc(CCn3cnc4ccccc43)no2)cc1 | 0 | 0 | 
13 | S=C=Nc1ccc(-c2noc(-c3ccccn3)n2)cc1 | 0 | 0 | 
14 | S=C=Nc1ccc(-c2noc(C34CC5CC(CC(C5)C3)C4)n2)cc1 | 0 | 0 | 
15 | c1ccc(-c2nc(CCn3c(-c4cscn4)nc4ccccc43)no2)cc1 | 17 | 0 | 
16 | S=C=Nc1ccc(-c2noc(C3CC3)n2)cc1 | 0 | 0 | 
17 | S=C=Nc1ccc(-c2nc(-c3cccs3)no2)cc1 | 22 | 33 | 
18 | O=[N+]([O-])c1ccc2ncn(CCc3noc(-c4ccccc4)n3)c2c1 | 0 | 0 | 
19 | O=C(Nc1ccc(-c2ncon2)cc1)Oc1ccccc1 | 0 | 0 | 
20 | COc1cc(-c2nc(-c3ccc(N=C=S)cc3)no2)cc(OC)c1OC | 0 | 0 | 

Row | Compound | Activity [1] [%] | Activity [2] [%] | other results
21 | S=C=Nc1ccc(-c2noc(CCl)n2)cc1 | 38 | 0 | 
22 | S=C=Nc1ccc(-c2nc(-c3ccccn3)no2)cc1 | 0 | 0 | 
23 | Nc1cc(-c2nc(-c3ccco3)no2)ccc1Cl | 0 | 0 | 
24 | C(=N/c1ccc(-c2ncon2)cc1)/c1ccc[nH]1 | 0 | 0 | 
25 | S=C=Nc1ccc(-c2noc(-c3cccs3)n2)cc1 | 57 | 25 | 
26 | Nc1ccc(-c2nc(-c3ccc(F)cc3)no2)cc1 | 18 | 0 | 
27 | Clc1ccc(/C=N/c2ccc(-c3ncon3)cc2)cc1 | 0 | 0 | 
28 | S=C=Nc1cccc(-c2ncon2)c1 | 0 | 0 | 
29 | S=C=Nc1cc(-c2ncon2)ccc1Cl | 0 | 0 | 
30 | O=C(Nc1cc(-c2nc(-c3ccco3)no2)ccc1Cl)Oc1ccccc1 | 0 | 0 | 
31 | CCc1nc(-c2ccc(N=C=S)cc2)no1 | 30 | 0 | 
32 | CCOC(=O)Cc1nc(-c2ccc(N=C=S)cc2)no1 | 0 | 0 | 
33 | CC(=O)Oc1ccccc1-c1nc(-c2ccc(N=C=S)cc2)no1 | 0 | 0 | 
34 | Fc1ccc(-c2nc(-c3ccc(N=C=S)cc3)no2)cc1 | 42 | 0 | 
35 | O=C(Nc1ccc(-c2nc(-c3ccco3)no2)c(Cl)c1)OCC(Cl)(Cl)Cl | 0 | 0 | 
36 | Clc1ccc(-c2ncon2)cc1 |  |  | Activity [4]: 36%; Activity [5]: 95%; Activity [6]: 61%; Activity [7]: 100%
37 | S=C=Nc1ccc(-c2ncon2)cc1 | 100 |  | Activity [3]: 100%; Activity [4]: 48%; Activity [8]: 0%; Activity [9]: 100%; Activity [5]: 96%; Activity [6]: 82%; Activity [7]: 100%
38 | CCN(CC)/C(S)=N\c1cc(-c2nc(-c3ccco3)no2)ccc1Cl | 0 | 0 | 
39 | CCN(CC)/C(S)=N\c1ccc(-c2nc(-c3ccco3)no2)c(Cl)c1 | 0 | 0 | 
40 | S=C=Nc1cccc(-c2noc(-c3ccco3)n2)c1 | 0 | 50 | 

Row | Compound | Activity [1] [%] | Activity [2] [%] | other results
41 | S=C=Nc1ccc(-c2noc(-c3ccc(Cl)cc3)n2)cc1 | 0 | 0 | 
42 | CN1CCN(Cc2nc(-c3ccc(N=C=S)cc3)no2)CC1 | 0 | 0 | 
43 | S=C=Nc1ccc(-c2nc(-c3ccco3)no2)c(Cl)c1 | 0 | 100 | 
44 | S=C=Nc1ccc(-c2nc(-c3ccco3)no2)cc1 | 90 | 100 | 
45 | S=C=Nc1cc(-c2nc(-c3ccco3)no2)ccc1Sc1ccccc1 | 0 | 0 | 
46 | C(=C\c1cccs1)/c1noc(/C=C/c2cccs2)n1 | 0 | 0 | 
47 | O=C(Nc1cc(-c2nc(-c3ccco3)no2)ccc1Cl)OCC(Cl)(Cl)Cl | 0 | 0 | 
48 | S=C=Nc1ccc(-c2noc(CCc3ccccc3)n2)cc1 | 0 | 0 | 
49 | CCOC(=O)c1nc(-c2ccc(N=C=S)cc2)no1 | 0 | 0 | 
50 | O=C(Nc1ccc(-c2nc(-c3ccco3)no2)c(Cl)c1)Oc1ccccc1 | 0 | 0 | 
51 | O=[N+]([O-])c1ccc(/C=N\c2ccc(-c3ncon3)cc2)o1 | 0 | 0 | 
52 | CSc1nc(-c2ccccc2)no1 |  |  | Activity [3]: 98%; Activity [4]: 39%; Activity [5]: 96%; Activity [6]: 67%; Activity [7]: 94%
53 | S=C=Nc1ccc(-c2nc(-c3ccc(Cl)cc3)no2)cc1 | 0 | 0 | 
54 | c1cc(-c2ncon2)ccn1 | 0 | 0 | 
55 | COC(=O)Nc1ccc(-c2nc(-c3ccco3)no2)c(Cl)c1 | 0 | 0 | 
56 | O=[N+]([O-])c1cc(/C=N/c2ccc(-c3ncon3)cc2)ccc1Cl | 0 | 0 | 
57 | S=C=Nc1ccc(-c2noc(-c3ccco3)n2)cc1 | 72 | 0 | 
58 | c1ccc2[nH]c(-c3cscn3)nc2c1 [THIABENDAZOLE] |  |  | Activity [3]: 100%; Activity [4]: 47%; Activity [5]: 94%; Activity [6]: 81%; Activity [7]: 100%
